Earlier results as cited in patent US20240423898A1, “LONGEVITY EYE CREAM” (Wellbeam Consumer Health Intermediate, LLC, priority 2023, published 2024).

Key:
[1] = system: under-eye dark circles; conditions: in vivo
[2] = system: skin; conditions: topical application

SMILES | under-eye dark circles [1] | improvement in lines and wrinkles, pigmentation, elasticity, firmness, and overall reduction in photo-damage [2] | irritating effect on the skin [2]
Cn1c(=O)c2c(ncn2C)n(C)c1=O [caffeine] | can reduce under-eye dark circles | – | –
C=C[C@@](C)(/C=C/c1ccc(O)cc1)CCC=C(C)C [bakuchiol] | – | significant improvement | no irritating effect on the skin
